Tests used:
[1] = Stability with different solvents (initial tests, HPLC-DAD); assay type: physicochemical; details: room temperature
Procedure: The stability of (E)-3-tosylacrylonitrile in different solvents, concentrations and temperatures was studied. The initial tests were conducted at room temperature and the tested solvents were i) propylene carbonate; ii) ethanol; iii) dimethylsulfoxide (DMSO); iv) combination of 35% ethanol-65% propylene glycol; v) water at pH 4; and water at pH 8. The amount of (E)-3-tosylacrylonitrile was analysed with HPLC-DAD. For sample pre-treatment, an approximately 1.45 mg/ml solution of (E)-3-tosylacrylonitrile was prepared in acetonitrile and the solution was analysed by HPLC. Quantification was performed using external (ESTD) calibration with authentic standards. Results from the initial tests with propylene carbonate, ethanol, dimethylsulfoxide, 35% ethanol-65% propylene glycol, and water are presented in FIG. 1.

[2] = Long-time stability in propylene carbonate (second round of tests, HPLC-DAD); assay type: physicochemical
Procedure: The amount of (E)-3-tosylacrylonitrile was analysed with HPLC-DAD. For sample pre-treatment, an approximately 1.45 mg/ml solution of (E)-3-tosylacrylonitrile was prepared in acetonitrile and the solution was analysed by HPLC. Quantification was performed using external (ESTD) calibration with authentic standards. After the initial tests, a second round of tests were conducted with propylene carbonate. The stability of (E)-3-tosylacrylonitrile in propylene carbonate was tested at 10 mg/ml and 50 mg/ml concentrations and at different temperatures. The effect of light on the stability was also examined (FIGS. 2 and 3).

dissolving in propylene carbonate ([1]; propylene carbonate): dissolved immediately
stability in propylene carbonate (short-term) ([1]; propylene carbonate): stable for at least one month
final concentration of (E)-3-tosylacrylonitrile after 6 months ([2]; 10 mg/ml and 50 mg/ml, all tested conditions (different temperatures, light), 6 months): above 90%
degradation in propylene carbonate ([2]; 10 and 50 mg/ml): slow
stability in propylene carbonate ([2]; 10 and 50 mg/ml, different temperatures, light): good even in harsh conditions
SMILES: Cc1ccc(S(=O)(=O)/C=C/C#N)cc1 [(E)-3-tosylacrylonitrile]
dissolving in the tested solvent ([1]; most tested solvents (ethanol, DMSO, 35% ethanol-65% propylene glycol, water pH 4, water pH 8)): did not dissolve thoroughly in the tested solvent or dissolving continued for several days
